The results in this text go back to article PMC9965625, “Endocannabinoid 2-Arachidonoylglycerol Synthesis and Metabolism at Neuronal Nuclear Matrix Fractions Derived from Adult Rat Brain Cortex” (International Journal of Molecular Sciences, 2023).

For this experiment, the target named is T1, α/β-hydrolase domain 12 protein (ABHD12) (Rattus norvegicus, UniProt Q6AYT7).
T1 construct: native enzyme in nuclear matrix fraction of adult rat brain cortex
T1 sequence (Q6AYT7 1-398): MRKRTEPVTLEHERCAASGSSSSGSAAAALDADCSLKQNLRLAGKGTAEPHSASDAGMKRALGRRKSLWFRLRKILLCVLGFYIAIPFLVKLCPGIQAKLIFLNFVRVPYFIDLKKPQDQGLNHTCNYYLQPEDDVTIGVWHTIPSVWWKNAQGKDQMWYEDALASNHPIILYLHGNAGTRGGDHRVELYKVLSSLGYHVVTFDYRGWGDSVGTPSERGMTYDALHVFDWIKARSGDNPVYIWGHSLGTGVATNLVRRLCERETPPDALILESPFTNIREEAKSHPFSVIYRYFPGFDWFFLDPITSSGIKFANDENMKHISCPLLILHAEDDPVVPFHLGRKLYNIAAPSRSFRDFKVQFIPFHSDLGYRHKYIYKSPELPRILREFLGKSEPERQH
Nature of the experiment: LC/MS/MS of arachidonic acid formed from […] exogenous 2-AG in nuclear matrix fraction, blocked by MAFP. It is filed as cell-based.

With `CCCCC/C=C\C/C=C\C/C=C\C/C=C\CCCC(=O)OC(CO)CO` [2-AG], the “LC/MS/MS of arachidonic acid formed from 10 μM exogenous 2-AG in nuclear matrix” value is “ABHD12 is the main responsible for the hydrolysis of 2-AG in the nuclear matrix”.
